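Results reflect a 48-hour exposure of cells in 96-well plates to compound at five concentrations. GI50 is the concentration that inhibits growth by half. TGI marks complete inhibition of growth.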
Key:
Test in all cases: NCI-60 cell line screen, 48 h
786-0 renal = tested on: 786-0 renal
A498 renal = tested on: A498 renal
A549 NSCLC = tested on: A549 NSCLC
ACHN renal = tested on: ACHN renal
BT-549 breast = tested on: BT-549 breast
CAKI-1 renal = tested on: CAKI-1 renal
CCRF-CEM leukemia = tested on: CCRF-CEM leukemia
DU-145 prostate = tested on: DU-145 prostate
EKVX NSCLC = tested on: EKVX NSCLC
HCC-2998 colon = tested on: HCC-2998 colon
HCT-116 colon = tested on: HCT-116 colon
HCT-15 colon = tested on: HCT-15 colon
HL-60(TB) leukemia = tested on: HL-60(TB) leukemia
HOP-62 NSCLC = tested on: HOP-62 NSCLC
HOP-92 NSCLC = tested on: HOP-92 NSCLC
HS 578T breast = tested on: HS 578T breast
HT29 colon = tested on: HT29 colon
IGROV1 ovarian = tested on: IGROV1 ovarian
K-562 leukemia = tested on: K-562 leukemia
KM12 colon = tested on: KM12 colon
LOX IMVI melanoma = tested on: LOX IMVI melanoma
M14 melanoma = tested on: M14 melanoma
MALME-3M melanoma = tested on: MALME-3M melanoma
MCF7 breast = tested on: MCF7 breast
MDA-MB-231 breast = tested on: MDA-MB-231 breast
MDA-MB-435 = tested on: MDA-MB-435
MOLT-4 leukemia = tested on: MOLT-4 leukemia
NCI-H226 lung = tested on: NCI-H226 lung
NCI-H23 lung = tested on: NCI-H23 lung
NCI-H460 lung = tested on: NCI-H460 lung
NCI-H522 lung = tested on: NCI-H522 lung
NCI/ADR-RES ovarian = tested on: NCI/ADR-RES ovarian
OVCAR-3 ovarian = tested on: OVCAR-3 ovarian
OVCAR-4 ovarian = tested on: OVCAR-4 ovarian
OVCAR-5 ovarian = tested on: OVCAR-5 ovarian
OVCAR-8 ovarian = tested on: OVCAR-8 ovarian
PC-3 prostate = tested on: PC-3 prostate
RPMI-8226 leukemia = tested on: RPMI-8226 leukemia
RXF 393 renal = tested on: RXF 393 renal
SF-268 CNS = tested on: SF-268 CNS
SF-295 CNS = tested on: SF-295 CNS
SF-539 CNS = tested on: SF-539 CNS
SK-MEL-2 melanoma = tested on: SK-MEL-2 melanoma
SK-MEL-28 melanoma = tested on: SK-MEL-28 melanoma
SK-MEL-5 melanoma = tested on: SK-MEL-5 melanoma
SK-OV-3 ovarian = tested on: SK-OV-3 ovarian
SN12C renal = tested on: SN12C renal
SNB-19 CNS = tested on: SNB-19 CNS
SNB-75 CNS = tested on: SNB-75 CNS
SW-620 colon = tested on: SW-620 colon
TK-10 renal = tested on: TK-10 renal
U251 CNS = tested on: U251 CNS
UACC-257 melanoma = tested on: UACC-257 melanoma
UACC-62 melanoma = tested on: UACC-62 melanoma
UO-31 renal = tested on: UO-31 renal

Cc1[nH]ncc1-c1cc2nc(C3CC4CCN3CC4)[nH]c(=O)c2s1 (stereo not given)
GI50 (786-0 renal): 2.92 µM | TGI (786-0 renal): > 100 µM | GI50 (A498 renal): 1.98 µM | TGI (A498 renal): 8.72 µM | GI50 (A549 NSCLC): 2.67 µM | TGI (A549 NSCLC): > 100 µM | GI50 (ACHN renal): 1.88 µM | TGI (ACHN renal): > 100 µM | GI50 (BT-549 breast): 2.59 µM | TGI (BT-549 breast): 29.6 µM | GI50 (CAKI-1 renal): 2.43 µM | TGI (CAKI-1 renal): > 100 µM | GI50 (CCRF-CEM leukemia): 2.36 µM | TGI (CCRF-CEM leukemia): > 100 µM | GI50 (DU-145 prostate): 3 µM | TGI (DU-145 prostate): > 100 µM | GI50 (EKVX NSCLC): 4.3 µM | TGI (EKVX NSCLC): 90.2 µM | GI50 (HCC-2998 colon): 7.09 µM | TGI (HCC-2998 colon): > 100 µM | GI50 (HCT-116 colon): 1.16 µM | TGI (HCT-116 colon): > 100 µM | GI50 (HCT-15 colon): 2.44 µM | TGI (HCT-15 colon): > 100 µM | GI50 (HL-60(TB) leukemia): 2.06 µM | TGI (HL-60(TB) leukemia): 6.15 µM | GI50 (HOP-62 NSCLC): 2.83 µM | TGI (HOP-62 NSCLC): > 100 µM | GI50 (HOP-92 NSCLC): 5.5 µM | TGI (HOP-92 NSCLC): > 100 µM | GI50 (HS 578T breast): 3.87 µM | TGI (HS 578T breast): > 100 µM | GI50 (HT29 colon): 3.85 µM | TGI (HT29 colon): > 100 µM | GI50 (IGROV1 ovarian): 3.47 µM | TGI (IGROV1 ovarian): > 100 µM | GI50 (K-562 leukemia): 6.54 µM | TGI (K-562 leukemia): > 100 µM | GI50 (KM12 colon): 4.07 µM | TGI (KM12 colon): > 100 µM | GI50 (LOX IMVI melanoma): 1.46 µM | TGI (LOX IMVI melanoma): 21.1 µM | GI50 (M14 melanoma): 4.49 µM | TGI (M14 melanoma): 83.5 µM | GI50 (MALME-3M melanoma): 6.02 µM | TGI (MALME-3M melanoma): 74 µM | GI50 (MCF7 breast): 2.58 µM | TGI (MCF7 breast): > 100 µM | GI50 (MDA-MB-231 breast): 4.89 µM | TGI (MDA-MB-231 breast): > 100 µM | GI50 (MDA-MB-435): 4.45 µM | TGI (MDA-MB-435): 30 µM | GI50 (MOLT-4 leukemia): 5.52 µM | TGI (MOLT-4 leukemia): > 100 µM | GI50 (NCI-H226 lung): 2.82 µM | TGI (NCI-H226 lung): > 100 µM | GI50 (NCI-H23 lung): 3.82 µM | TGI (NCI-H23 lung): > 100 µM | GI50 (NCI-H460 lung): 2.44 µM | TGI (NCI-H460 lung): > 100 µM | GI50 (NCI-H522 lung): 2.75 µM | TGI (NCI-H522 lung): 39.4 µM | GI50 (NCI/ADR-RES ovarian): 11.8 µM | TGI (NCI/ADR-RES ovarian): > 100 µM | GI50 (OVCAR-3 ovarian): 3.74 µM | TGI (OVCAR-3 ovarian): > 100 µM | GI50 (OVCAR-4 ovarian): 9.68 µM | TGI (OVCAR-4 ovarian): > 100 µM | GI50 (OVCAR-5 ovarian): 3.33 µM | TGI (OVCAR-5 ovarian): > 100 µM | GI50 (OVCAR-8 ovarian): 3.2 µM | TGI (OVCAR-8 ovarian): > 100 µM | GI50 (PC-3 prostate): 4.13 µM | TGI (PC-3 prostate): > 100 µM | GI50 (RPMI-8226 leukemia): 18.2 µM | TGI (RPMI-8226 leukemia): > 100 µM | GI50 (RXF 393 renal): 2.36 µM | TGI (RXF 393 renal): 5.96 µM | GI50 (SF-268 CNS): 3.8 µM | TGI (SF-268 CNS): > 100 µM | GI50 (SF-295 CNS): 2.88 µM | TGI (SF-295 CNS): > 100 µM | GI50 (SF-539 CNS): 1.47 µM | TGI (SF-539 CNS): 7.74 µM | GI50 (SK-MEL-2 melanoma): 8.8 µM | TGI (SK-MEL-2 melanoma): 29.5 µM | GI50 (SK-MEL-28 melanoma): 4.94 µM | TGI (SK-MEL-28 melanoma): > 100 µM | GI50 (SK-MEL-5 melanoma): 2.77 µM | TGI (SK-MEL-5 melanoma): 52.9 µM | GI50 (SK-OV-3 ovarian): 14.5 µM | TGI (SK-OV-3 ovarian): > 100 µM | GI50 (SN12C renal): 3.31 µM | TGI (SN12C renal): > 100 µM | GI50 (SNB-19 CNS): 4.78 µM | TGI (SNB-19 CNS): > 100 µM | GI50 (SNB-75 CNS): 1.01 µM | TGI (SNB-75 CNS): 9.55 µM | GI50 (SW-620 colon): 2.65 µM | TGI (SW-620 colon): > 100 µM | GI50 (TK-10 renal): 1.9 µM | TGI (TK-10 renal): > 100 µM | GI50 (U251 CNS): 2.52 µM | TGI (U251 CNS): > 100 µM | GI50 (UACC-257 melanoma): 5.79 µM | TGI (UACC-257 melanoma): 84 µM | GI50 (UACC-62 melanoma): 3.28 µM | TGI (UACC-62 melanoma): 17.6 µM | GI50 (UO-31 renal): 2.91 µM | TGI (UO-31 renal): > 100 µM
